Patent US6596772B1, “Phosphate mimics and methods of treatment using phosphatase inhibitors” (Sugen, Inc., priority 1999, dated 2003)

Assays:
Assay in all cases: PTP IC50 assay, fluorescent substrate DiFMUP
Type in all cases: biochemical
[1] = target: T1, PTP SHP2 (Homo sapiens, UniProt Q06124); conditions: DiFMUP as substrate, 25° C.; read-out: PTP IC50 SHP2
T1 construct: The catalytic domain was amplified using the following oligonucleotides; made in house; host or cells: Sf-9 insect cells (pFastBac-G2T)
T1 sequence (Q06124 247-517 limits assumed): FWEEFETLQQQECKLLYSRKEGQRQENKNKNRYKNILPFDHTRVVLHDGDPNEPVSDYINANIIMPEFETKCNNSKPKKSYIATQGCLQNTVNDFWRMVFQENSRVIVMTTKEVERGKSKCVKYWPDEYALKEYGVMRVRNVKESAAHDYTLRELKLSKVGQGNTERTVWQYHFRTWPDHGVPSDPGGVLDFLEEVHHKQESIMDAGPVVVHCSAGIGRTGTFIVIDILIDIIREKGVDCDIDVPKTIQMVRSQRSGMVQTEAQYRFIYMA
Description: SHP-2 cDNA was used as described earlier (Vogel W., et al.,1993, Science, 259:1611-4). The catalytic domain was amplified using the following oligonucleotides 5′oligo: 5′-[…]-3′ (SEQ ID NO: 2) 3′oligo: 5′-[…]-3′ (SEQ ID NO: 3) and subsequently subcloned into BamH1-Xba-1 sites. It was then ligated into pfas Bac-G2T BamH1-Xba-1 sites.
(§1) The following in vitro assay procedure is preferred to determine the level of activity and effect of the different compounds of the present invention on one or more of the PTPs. Similar assays can be designed along the same lines for any PTP using techniques well known in the art.
(§2) The catalytic assays described herein are performed in a 96-well format. The general procedure begins with the determination of PTP optimal pH using a three-component buffer system that minimizes ionic strength variations across a wide range of buffer pH. Next, the Michaelis-Menten constant, or Km, is determined for the substrate 6,8-difluoro-4-methylumbelliferyl phosphate (DiFMUP). This Km value is subsequently used as the substrate reaction concentration for compound screening. Finally, the test PTP is exposed to varying concentrations of compound for fifteen minutes and allowed to react with substrate for ten minutes. The results are plotted as percent inhibition versus compound concentration and the IC50 interpolated from the plot.
(§3) All assays were performed using DiFMUP as substrate. The optimum pH and substrate Km was determined for each PTP used.
(§4) PTPase activity was assayed at 25° C. in a 100-μl reaction mixture containing an appropriate concentration of DiFMUP as substrate. The reaction was initiated by addition of the purified PTP and quenched after 10 min by addition of 1% H2O2/100 mM NaCl. The non-enzymatic hydrolysis of the substrate was corrected by measuring the control without the addition of the enzyme. The amount of DiFMU produced was determined from the increase in the fluorescence (360 nm excitation/460 nm emission) over that of background in the absence of PTPase. To determine the kinetic parameter, Km, the initial velocities were measured at various substrate concentrations and the data were fitted to the Michaelis equation where velocity=(Vmax*[S])/(Km+[S]), and [S]=substrate reaction concentration.
(§5) The effect of the compounds on PTP was evaluated at 25° C. using DiFMUP as substrate. PTP was pre-incubated for fifteen minutes with various concentrations of compound. Substrate was then added at a fixed concentration (usually equal to the Km previously calculated). After 10 minutes, the reaction was quenched. The hydrolysis of DiFMUP was followed as described above. The percent inhibition was calculated as follows: Percent Inhibition=[(control signal−compound signal)/control signal]×100%. The IC50 was then determined by interpolation of a percent inhibition versus compound concentration plot.
(§6) Plasmids designed for bacterial GST-PTP fusion protein expression were derived by insertion of PCR-generated human PTP fragments into pGEX vectors (Pharmacia Biotech). Several of these constructs were then used to subclone phosphatases into pFastBac-1 for expression in Sf-9 insect cells. Oligonucleotides used for the initial amplification of PTP genes are as described above. The cDNAs were prepared using the Gilbo BRL superscript preamplification system on RNAs purchased from Clontech.

[2] = target: T2, PTP 1B (Homo sapiens, UniProt P18031); conditions: DiFMUP as substrate, 25° C.; read-out: PTP IC50 1B
T2 construct: made in house; host or cells: Sf-9 insect cells (pFastBac-G2T)
T2 sequence (P18031 1-435): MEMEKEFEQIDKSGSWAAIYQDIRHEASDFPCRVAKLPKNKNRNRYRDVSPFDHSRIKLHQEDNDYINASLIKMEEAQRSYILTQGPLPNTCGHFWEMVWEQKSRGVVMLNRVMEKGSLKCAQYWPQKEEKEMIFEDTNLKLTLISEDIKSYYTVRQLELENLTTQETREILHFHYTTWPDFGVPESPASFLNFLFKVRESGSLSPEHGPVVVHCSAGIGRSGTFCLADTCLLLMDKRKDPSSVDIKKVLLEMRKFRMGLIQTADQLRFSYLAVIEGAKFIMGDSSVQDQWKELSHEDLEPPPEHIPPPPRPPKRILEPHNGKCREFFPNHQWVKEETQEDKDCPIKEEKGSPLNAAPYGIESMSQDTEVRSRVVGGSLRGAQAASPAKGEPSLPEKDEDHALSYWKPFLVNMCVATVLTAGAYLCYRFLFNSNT
Description: The PTP1b cDNA was amplified from human placenta single strand cDNA (Clontech RNA) using the following oligonucleotides: 5′oligo: 5′-[…] (SEQ ID NO: 4) 3′oligo: 5′-[…] (SEQ ID NO: 5) It was subsequently ligated into pFasBac G2TBamH1Xba-1 sites.
as §1, §2, §3, §4, §5, §6

[3] = target: T3, PTP EPSILON (Homo sapiens, UniProt P23469); conditions: DiFMUP as substrate, 25° C.; read-out: PTP IC50 Epilson
T3 construct: made in house; host or cells: Sf-9 insect cells (pFastBac-G2T); a pGEX 6P-1 construct also existed
Description: The PTPepsilon cDNA was amplified from human placenta single-strand cDNA (Clontech RNA) using the following oligonucleotides: 5′oligo: 5′-[…]-3′ (SEQ ID NO: 6) 3′oligo: 5′-[…]-3′ (SEQ ID NO: 7) After cloning this PCR product into the Bam HI/Xho I sites of pGEX 6P-1, this phosphatase was subcloned using the same restriction sites in pFastBac-G2T.
as §1, §2, §3, §4, §5, §6

T3 sequence (P23469 80-393 limits assumed): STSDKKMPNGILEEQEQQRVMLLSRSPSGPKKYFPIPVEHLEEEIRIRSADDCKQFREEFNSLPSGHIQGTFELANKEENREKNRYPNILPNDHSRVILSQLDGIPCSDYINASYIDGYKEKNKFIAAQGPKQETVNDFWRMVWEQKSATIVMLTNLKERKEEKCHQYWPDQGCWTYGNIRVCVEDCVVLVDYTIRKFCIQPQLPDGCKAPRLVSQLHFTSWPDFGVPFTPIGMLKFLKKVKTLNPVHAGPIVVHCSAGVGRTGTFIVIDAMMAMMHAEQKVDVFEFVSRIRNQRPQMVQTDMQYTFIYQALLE

Structure (SMILES) | IC50 [1] [µM] | IC50 [2] [µM] | IC50 [3] [µM]
Cn1c(C(=O)O)cc2cc(NS(=O)(=O)C(F)(F)F)ccc21 [Example 78, 1-Methyl-5-trifluoromethanesulfonylamino-1H-indole-2-carboxylic acid] | > 100 | > 100 | > 100
Cc1cc2cc(NS(=O)(=O)C(F)(F)F)ccc2n1CC(=O)O [Example 79, (2-Methyl-5-trifluoromethanesulfonylamino-indol-1-yl)-acetic acid] | > 100 | > 100 | > 20
Cn1c(C(=O)Nc2cccc(C(=O)O)c2)cc2cc(NS(=O)(=O)C(F)(F)F)ccc21 [Example 82, 3-[(1-Methyl-5-trifluoromethanesulfonylamino-1H-indole-2-carbonyl)-amino]-benzoic acid] | 87.7 | > 20 | 7.7
Cc1cc2cc(NS(=O)(=O)C(F)(F)F)ccc2n1CC(=O)Nc1cccc(C(=O)O)c1 [Example 86, 3-[2-(2-Methyl-5-trifluoromethanesulfonylamino-indol-1-yl)-acetylamino]-benzoic acid] | > 100 | > 20 | > 20
Cc1cc2cc(NS(=O)(=O)C(F)(F)F)ccc2n1CC(=O)NCc1ccc(C(=O)O)cc1 [Example 87, 4-{[2-(2-Methyl-5-trifluoromethanesulfonylamino-indol-1-yl)-acetylamino]-methyl}-benzoic acid] | 97 | > 20 | > 20
Cc1cc2cc(NS(=O)(=O)C(F)(F)F)ccc2n1CC(=O)OC(C)(C)C [Example 88, (2-Methyl-5-trifluoromethanesulfonylamino-indol-1-yl)-acetic acid tert-butyl ester] | 31.4 | > 20 | 8.2
CCOC(=O)c1cc2cc(NS(=O)(=O)C(F)(F)F)ccc2n1C [Example 89, 1-Methyl-5-trifluoromethanesulfonylamino-1H-indole-2-carboxylic acid ethyl ester] | 69 | > 20 | > 20
O=C(O)c1ccc2cc(NS(=O)(=O)C(F)(F)F)ccc2c1 [Example 90, 6-Trifluoromethanesulfonylamino-naphthalene-2-carboxylic acid] | 64 | > 20 | 35.9
O=C(O)c1ccc2cc(CN(Cc3ccc4cc(C(=O)O)ccc4c3)S(=O)(=O)C(F)(F)F)ccc2c1 [Example 91, N,N-Bis[(6-carboxyl-naphthalen-2-yl)methyl]trifluoromethanesulfonamide] | 25.9 | > 20 | > 20
CN(Cc1ccc2cc(C(=O)O)ccc2c1)S(=O)(=O)C(F)(F)F [Example 92, 6-[(Methyl-trifluoromethanesulfonyl-amino)-methyl]-naphthalene-2-carboxylic acid] | 48 | > 20 | 5.1

Further lines, results first:

IC50 [1] [µM] | IC50 [2] [µM] | IC50 [3] [µM] | Structure (SMILES)
58.1 | > 20 | 26.9 | Cn1c(C(=O)Nc2ccccc2)cc2cc(NS(=O)(=O)C(F)(F)F)ccc21 [Example 80, 1-Methyl-5-trifluoromethanesulfonylamino-1H-indole-2-carboxylic acid phenylamide]
6.2 | 14.6 | 4.4 | O=C(Nc1ccccc1)c1cc2cc(NS(=O)(=O)C(F)(F)F)ccc2[nH]1 [Example 81, 5-Trifluoromethanesulfonylamino-1H-indole-2-carboxylic acid phenylamide]
58.5 | > 20 | 8.4 | O=C(O)c1cccc(NC(=O)c2cc3cc(NS(=O)(=O)C(F)(F)F)ccc3[nH]2)c1 [Example 83, 3-[(5-Trifluoromethanesulfonylamino-1H-indole-2-carbonyl)-amino]-benzoic acid]
62 | > 20 | 16.1 | O=C(O)c1ccc(NC(=O)c2cc3cc(NS(=O)(=O)C(F)(F)F)ccc3[nH]2)cc1 [Example 84, 4-[(5-Trifluoromethanesulfonylamino-1H-indole-2-carbonyl)-amino]-benzoic acid]
